# Reference: US20160333063A1, “SOLUBLE HIGH MOLECULAR WEIGHT (HMW) TAU SPECIES AND APPLICATIONS THEREOF” (THE GENERAL HOSPITAL CORPORATION, priority 2013, published 2016)
# Where a SMILES comes first, the peptide text is derived from it. The star is where a group is joined. Cbz = O=C(OCc1ccccc1)*; CH2F = FC*
# What was measured:
# Assay type in all cases: cell-based, mouse
# [1] = tested on: caspase 3; assay: Western blot of cleaved caspase 3 in treated primary cortical neurons
# Protocol: (§1) Treatment of neuronal cultures. Wild-type (from CD1 mice), Tau−/−, Tau+/−, and Tau+/+ cortical neurons were cultured in standard NB/B27 serum-free medium, and, at 14 DIV, the medium was replaced with diluted 1:3 CM from TgCM, corresponding to 4 nM of Aβ, or WtCM (0.16 nM of murine Aβ40) and further incubated for 24 hrs. To induce apoptosis, cultures were treated with staurosporine (Enzo Life Sciences) at a final concentration of 1 μM and were harvested 4 hours after treatment. In zVAD-FMK (Sigma Aldrich) experiments, 20 μM of the inhibitor was applied to cultures 20 minutes prior to exposure to WtCM, TgCM, or STS. To inhibit calcineurin, 1 μM FK506 (Enzo Life Sciences) was applied 20 minutes prior to exposure to WtCM, TgCM or STS. Media was then aspirated and RIPA buffer with phosphatase and protease inhibitors was added to each well. Cells were scraped to prepare lysates for Western blots.
# Western Blot. Protein lysates were boiled in sample buffer consisting of LDS Sample Buffer and reducing Agent, resolved on 4%-12% Bis-Tris polyacrylamide precast gels in a MES-SDS running buffer containing antioxidant. For most analyses, 20 μg/lane were loaded. Gels were transferred onto nitrocellulose membranes (Whatman) in transfer buffer containing 20% methanol. Blots were blocked in Odyssey blocking buffer (Li-Cor biosciences), followed by incubation with primary antibodies: mouse β-actin (Sigma; 1:10,000); rabbit cleaved caspase 3 (Cell Signaling; 1:1,000); rabbit caspase 3 (Cell Signaling; 1:1,000); mouse TauC3 (courtesy of Dr Lester Binder, 1:300); rabbit polyclonal Total Tau (Dako; 1:10,000), rabbit PSD95 (1:1,000; Cell Signaling), rabbit cleaved caspase 9 (1:1,000; Cell Signaling), mouse caspase 9 (1:1,000; Cell Signaling), rabbit pBAD (1:1,000; Cell Signaling), rabbit BAD (1:1,000; Cell Signaling), VDAC (1:1,000; Cell Signaling), mouse cytochrome c (1:1,000; BD Pharmingen), mouse BAX (1:1,000; Santa Cruz), rabbit cleaved PARP (1:1,000; Cell Signaling), rabbit PARP (1:1,000; Cell Signaling). […]
# [2] = tested on: primary neuronal cultures; assay: ToxiLight BioAssay for cell death
# Protocol: ToxiLight BioAssay. Toxicity assays were conducted in medium collected from wild-type, Tau+/− and Tau−/− neurons plated in 96 well plates at 15 DIV using the ToxiLight BioAssay kit (Lonza, Rockland, Me.). Preparation of cell extracts and the cytotoxicity assay were performed according to manufacturer protocols. After centrifugation, 50 μl samples per well were transferred on an opaque white microtitre plate. To each well, 100 μl of the adenylate kinase detection reagent was added and the plate was incubated for 5 min at room temperature. After 5 min, luminescence was measured in the Wallac plate reader. Results are expressed as arbitrary relative light units (AU). To achieve 100% cell lysis (positive control) neurons were treated with 10% triton-X-100. […] Neurons for Toxilight assays were plated in 96 well plates using 3 wells per condition in duplicate across four separate culture experiments.
# [3] = tested on: poly (ADP-ribose) polymerase (PARP); assay: Western blot of cleaved PARP; details: TgCM 24 hrs; STS 6 hours
# Protocol: as §1, with “To induce apoptosis, cultures were treated with staurosporine (Enzo Life Sciences) at a final concentration of 1 μM and were harvested 4 hours after treatment.” left out
# (§2) Western Blot. Protein lysates were boiled in sample buffer consisting of LDS Sample Buffer and reducing Agent, resolved on 4%-12% Bis-Tris polyacrylamide precast gels in a MES-SDS running buffer containing antioxidant. For most analyses, 20 μg/lane were loaded. Gels were transferred onto nitrocellulose membranes (Whatman) in transfer buffer containing 20% methanol. […]
# [4] = tested on: caspase 9; assay: Western blot of cleaved caspase 9 in treated primary cortical neurons; details: TgCM treated cultures, inhibitor or Aβ immunodepletion
# Protocol: as §1, §2
# [5] = tested on: cytochrome c; assay: Western blot of cytochrome c in cytosolic fraction and mitochondrial pellet; details: TgCM treated cultures plus inhibitor
# Protocol: as §1
# Mitochondria Isolations. Mitochondria were isolated from neurons plated in 10 cm dishes treated with WtCM and TgCM and purified by centrifugation as previously described (Ofengeim et al., 2012). […] The protein concentration was determined by BCA assay (Thermo Scientific) in all fractions and this concentration used for loading gels for western blot analysis. […]
# [6] = tested on: BAD; assay: Western blot of phosphorylated BAD in treated primary cortical neurons; details: TgCM treated cultures, inhibitor or Aβ immunodepletion
# Protocol: as §1, §2
# [7] = tested on: tau cleaved at Asp421 (TauC3); assay: Western blot of tau cleaved at Asp421 in treated primary cortical neurons
# Protocol: as §1, §2
# [8] = tested on: PSD95; assay: Western blot of PSD95; details: co-treated with inhibitor
# Protocol: as §1, §2
# [9] = tested on: GFP transfected neurons; assay: Spine density of GFP transfected neurons
# Protocol: Analysis of spine density and spine morphology. Cultured neurons plated in 35 mm glass-bottomed dishes (MatTek) were transfected with green fluorescent protein (GFP) (Clontech) at 7 DIV and imaged at 15 DIV. High-resolution digital images were taken using a Zeiss LSM510 confocal microscope with a 25× water-immersion objective lens (digital zoom=3-5), and excitation laser at 488 nm. Images were analyzed with NeuronStudio software (CNIC, Mount Sinai School of Medicine). Spine density was defined as the number of spines per micrometer of dendrite length according previously published protocols (Wu et al., 2010) with modifications. Dendritic spine densities were calculated from 30 to 40 neurons per condition across four separate culture experiments. For each condition, measurements of spine densities were averaged per neuron; the means from multiple neurons were then averaged to obtain the mean±s.e.m. for the population of neurons.
# [10] = STS 1 μM plus caspase inhibition
# [11] = TgCM (4 nM Aβ) 24 hrs, inhibitor applied 20 minutes prior
smiles,measurement,setting,value
C=CC[C@@H]1/C=C(\C)C[C@H](C)C[C@H](OC)[C@H]2O[C@@](O)(C(=O)C(=O)N3CCCC[C@H]3C(=O)O[C@H](/C(C)=C/[C@@H]3CC[C@@H](O)[C@H](OC)C3)[C@H](C)[C@@H](O)CC1=O)[C@H](C)C[C@@H]2OC [FK506],"caspase 3 activation, tau cleavage, caspase 9 activation and BAD dephosphorylation in WtCM treated cultures",[1]; WtCM plus inhibitor,no effect
"CN[C@@H]1C[C@H]2O[C@@](C)([C@@H]1OC)n1c3ccccc3c3c4c(c5c6ccccc6n2c5c31)C(=O)NC4 [STS, staurosporine]",cell death (release of adenylate kinase),[2]; compared to control,cell death was induced
same,cleaved PARP,[3],induced PARP cleavage
COC(=O)C[C@H](NC(=O)[C@H](C)NC(=O)[C@@H](NC(=O)OCc1ccccc1)C(C)C)C(=O)CF [zVAD-FMK] (Cbz-Val-Ala-Asp(OMe)-CH2F),Aβ-induced caspase 9 activation,[4],blocked
same,STS-induced cell death,[2]; STS plus inhibitor,blocked
same,levels of cytochrome c in the cytosol or mitochondrial pellet,[5],did not alter levels of cytochrome c
same,TgCM-induced dephosphorylation of BAD,[6],did not prevent dephosphorylation of BAD
same,tau cleavage in STS treated cells,[7]; [10],reduced tau cleavage
same,TauC3 levels / tau cleavage in TgCM exposed neurons,[7]; [11],no increase
same,PSD95 levels in neurons exposed to TgCM,[8],preserved
same,spine loss triggered by TgCM,[9]; TgCM treated neurons plus inhibitor,fully blocked the spine loss
same,spine density in WtCM exposed neurons,[9]; WtCM plus inhibitor,significant increase in spine density
same,caspase 3 activation in STS treated cells,[1]; [10],reduced activation of caspase 3
same,caspase 3 activation in TgCM exposed neurons,[1]; [11],no increase
